Molecules are shown by their SMILES. Bridge positions count the residues as written; N and C are the ends. Square brackets hold non-standard residues; d marks the D form. Peptide text beside a SMILES is read from it. NMeF = CN[C@@H](Cc1ccccc1)C(=O)O; dOrn = NCCC[C@@H](N)C(=O)O

By IC50 is commonly meant the concentration at which inhibition is half-maximal. Low readings indicate greater potency in that assay, high ones weaker potency in that assay.

In series [1] the test system is Kunming male mice. The series is described as follows: Photothermal tail flick experiment, subcutaneous injection. The class given is in vivo. As to conditions: photothermal tail flick. As to the method:
Two administration methods were used: peripheral subcutaneous administration and oral administration. Subsequently, the analgesic activity of the drug was studied using an acute pain model of photothermal tail flick in mice.
Subcutaneous administration on the back was chosen for subcutaneous administration (s.c.). A sterile 1 mL syringe was used and the drug with the volume of 0.1 mL/10 g was injected for administration. The back skin was grasped with the right hand, the needle was tilted in, and the drug was injected subcutaneously into the mouse's back. After the needle was inserted, shook it left and right, and observe to confirm that the needle had indeed entered the subcutaneous area to prevent the needle from puncturing the skin and leaking the drug.
The photothermal tail flick experiment is based on the experimental method summarized by D'Amour and Smith to optimize the experimental parameters. The experiment selected Kunming male mice with body weigh 21±2 g, and ambient temperature controlled at 22±2° C. The experimental mice were allowed to drink water freely and were moved from the breeding room to the experimental area for adaptation for 30 minutes before starting the experiment. Then the mice were grab with the right hand and the tail hang freely. Then the mice's tail were placed on a radiation light source, 2-3 mm away from the mice tail. The intensity of radiation heat was adjusted to the tail flick time of mice being 3-5 s, which is the basic pain threshold of photothermal tail flick. The irradiation time of the mice tail should not exceed 10 s to prevent scalding of the mice tail, which was the maximum latency for photothermal tail flick. After administration, time points of 10, 20, 30, 45, 60, 90, 120, 180, 240, 300, 360, and 420 minutes were selected to measure the tail flick latency of mice after administration.
The analgesic effect of drugs was generally evaluated using the maximum analgesic effect MPE (%), MPE (%)=100×[(pain threshold after administration−basic pain threshold)/(10 seconds−basic pain threshold)]. 50% effective dose (ED50) refers to the corresponding drug dose that causes a 50% effect. ED50 and 95% confidence interval were calculated using MPE (%) and the drug concentration that achieves the maximum analgesic effect MPE (%) by the statistical software GraphPad Prism 5.0. The difference in analgesic effects was statistically analyzed using one-way ANOVA (Dunnett test), *P<0.05, **P<0.01, and ***P<0.001 indicated significance of the difference between the group with only drug injected and the saline group.

In series [2] the test system is Kunming male mice. Description: Open field test (locomotor activity). As to conditions: oral, 1000 μg/kg of compound 1, 100 μg/kg of compound 11; for locomotor distance: within 150 minutes, saline 131.1±33.93 m. The class given is in vivo. The protocol:
Open field test was consisted of an uncapped 50×50×40 cm black organic glass box and a set of motion monitoring system. 21±2 g Kunming male mice were selected for the experiment. The room temperature was controlled between 22±1° C., otherwise, high or low temperatures would affect the movement of the mice. Before the experiment began, the box was wipped with alcohol to remove the odor inside and avoid the odor from affecting the locomotor activity of the next mouse. Before the experiment, the basic locomotor activity of the mouse in 30 minutes was recorded, followed by oral (p.o.) injection of physiological saline, 1000 μg/kg of compound 1, and 100 μg/kg of compound 11. The locomotor activity of mice within 150 minutes was recorded. The locomotor activity of mouse was represented by the total distance traveled, which is the total distance±S.E.M. The difference between the compound group and saline control group was statistically analyzed using one-way ANOVA (Bonferroni test). *P<0.05, **P<0.01, and ***P<0.001 indicated significance of difference between saline and compound.

The target of a further series is T1, Mu-opioid receptor (Homo sapiens, UniProt P35372).
T1 construct: expressed in transfected cells; host or cells: HEK293
The series is described as follows: cAMP functional experiment, Mu-opioid receptor (forskolin-induced cAMP accumulation). It counts as cell-based. As to the method: The agonistic activity of the cyclopeptide molecule of the present invention against Mu-opioid receptor, Delta-opioid receptor, Kappa-opioid receptor, NPFF1 receptor and NPFF2 receptor was evaluated by detecting the regulation of the cyclopeptide molecule of the present invention on the intracellular accumulation of cyclic adenosine monophosphate (cAMP) induced by Forskolin in HEK293 cells stably expressing these five receptors. The experimental method was: the cells were seeded in 24 well plates with 120000 cells per well, and were cultured for more than 20 hours. At the beginning of the experiment, the culture medium in the culture dish was suck out, and then 500 μL of preheated serum-free medium containing 1 mM of IBMX was added, the mixture was incubated at 37° C. for 10 minutes. Then each 10 μL of the drug to be tested and 10 μM of forskolin (final concentration) were added to each well. The mixture was incubated at 37° C. for 30 minutes. After incubation, all the liquid was suck out from the culture dish, 500 μL of 0.2 N hydrochloric acid was added to each well, the mixture was incubated at room temperature for 30 minutes to promote cell lysis. After lysis was complete, NaOH was added to neutralize the hydrochloric acid solution used for lysis. Then all the liquid was suck out from the culture dish into centrifuge tubes, the liquid was centrifuged at 12000 rpm for 2 minutes. 50 μL was taken to a clean centrifuge tube, 100 μL of 60 μg/μL PKA was added, and 100 μL of TE cAMP buffer was added to the blank control group (B). Another 50 μL of 0.5 μ Ci[^3H]cAMP was added to each of the above centrifuge tubes, the mixture was quickly mixed and incubated at 4° C. for more than 2 hours. After incubation, another 100 μL of activated carbon suspension was added to each tube, the mixture was vortex agitated evenly, placed in an ice bath for 1 minute, centrifuged at 5000 rpm for 4 minutes. 200 μL of supernatant after centrifugation in each tube was suck out to a 24 well plate, with an additional 700 μL of scintillator liquid added per well, then the 24 well plate was sealed with adhesive film, placed for 3 hours, then placed on the scintillation instrument for measurement.
The inhibitory effect of cAMP was represented by the percentage (% control) of drug inhibition of intracellular cAMP accumulation induced by Forskolin, wherein % control=(cAMP content when treated with Forskolin−cAMP content when Forskolin co-treated with the test drug)/(cAMP content when treated with Forskolin−cAMP content when treated with solvent). The related % control data was represented by mean±S.E.M. The dose-effect relationship of the drug was statistically analyzed using a nonlinear regression model, and the IC50 values of the multi-target cyclopeptide molecule on inhibition of Forskolin induced intracellular cAMP accumulation were calculated using the statistical software GraphPad Prism version 5.0.
A general note: cAMP levels reflect the balance of adenylyl cyclase and phosphodiesterase activity.

T1 sequence (P35372 whole entry): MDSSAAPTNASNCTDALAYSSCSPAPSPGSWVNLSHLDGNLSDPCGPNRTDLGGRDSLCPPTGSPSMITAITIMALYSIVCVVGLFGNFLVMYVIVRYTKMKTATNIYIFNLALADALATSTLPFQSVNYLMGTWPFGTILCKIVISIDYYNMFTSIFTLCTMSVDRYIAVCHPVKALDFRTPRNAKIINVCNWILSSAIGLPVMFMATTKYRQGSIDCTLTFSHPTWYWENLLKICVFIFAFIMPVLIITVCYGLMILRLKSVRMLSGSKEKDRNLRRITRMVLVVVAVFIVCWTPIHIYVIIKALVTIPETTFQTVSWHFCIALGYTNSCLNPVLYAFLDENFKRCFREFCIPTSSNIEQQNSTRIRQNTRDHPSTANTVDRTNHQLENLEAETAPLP

As to `CN1C(=O)CNC(=O)[C@H](NC(=O)[C@@H](N)Cc2ccc(O)cc2)CCCCNC(=O)C[C@@H](C(=O)N2CCC[C@H]2C(=O)N[C@@H](CCC(N)=O)C(=O)N[C@@H](CCCNC(=N)N)C(=O)N[C@@H](Cc2ccccc2)C(N)=O)NC(=O)[C@@H]1Cc1ccccc1` [Compound 1, Tyr-c[D-Lys-Gly-NMe-Phe-Asp]-Pro-Gln-Arg-Phe-NH2] (H-Y[dK]G[NMeF]DPQRF-NH2; lactam 2-5), the “ED50 value (95% confidence interval), analgesic activity” value in the series on Kunming male mice [1] was 0.32 (0.27 to 0.38) μg/kg. Besides, in the series with Kunming male mice [2], the “locomotor activity versus saline” value is “no change in the locomotor activity” and the locomotor distance is 109.4±32.16 m. Besides, at Mu-opioid receptor, half-maximal inhibition (IC50) was put at 93.5 nM.
As for `CN1C(=O)CNC(=O)[C@H](NC(=O)[C@@H](N)Cc2ccc(O)cc2)CCCNC(=O)CC[C@@H](C(=O)N2CCC[C@H]2C(=O)N[C@@H](CCC(N)=O)C(=O)N[C@@H](CCCNC(=N)N)C(=O)N[C@@H](Cc2ccccc2)C(N)=O)NC(=O)[C@@H]1Cc1ccccc1` [Compound 11, Tyr-c^[2,5][D-Orn-Gly-NMe-Phe-Glu]-Pro-Gln-Arg-Phe-NH2] (H-Y[dOrn]G[NMeF]EPQRF-NH2; lactam 2-5), in the series on Kunming male mice [2], the “locomotor activity versus saline” value is “no change in the locomotor activity” and the locomotor distance is given as 127.9±23.49 m. The IC50 on Mu-opioid receptor came out at 84 nM.

For the origin of these results see patent US20240166690A1, “MULTI-TARGET CY[…] FOR OPIOID/NEUROPEPTIDE FF RECEPTORS, AND PREPARATION THEREFOR AND APPLICATION THEREOF” (SHANGHAI TIANCI LIFE SCIENCE DEVELOPMENT CO., LTD., priority 2021, published 2024).
